Entries after “also recorded” stand apart in the source; their conditions may differ.
Assays:
HUVEC cell line = assay: TCS Biologicals Human Angiogenesis Model (tubule formation); type: cell-based
Experimental: The effect of sulphated dextrin on vessel formation of the HUVEC cell line was performed by the use of the TCS Biologicals Human Angiogenesis Model. The assay is supplied as a growing culture of the HUVEC cell line together with culture matrix and additional human cells present (the exact nature of the cells is not known) at the earliest stages of tubule formation in a 24-well format. The positive control reagent was a standard stock solution of VEGF and the negative control was Suramin. After removing the well seals, the cultures were examined for cell morphology to confirm their viability.
Growth medium was provided with the kit and was used to make up the sulphated dextrin at concentrations ranging from 0-1000 μg/ml. The existing medium was aspirated from the wells and replaced with medium containing the dextrin sulphate concentrations in a 0.5ml volume. This was placed at 37° C., in a 5% CO2 containing atmosphere. This was repeated on days 4, 7 and 9.
Between days 7-11 cultures were fixed by the enclosed fixative and stained with the mouse monoclonal anti-PECAM-1 antibody at a 1:4000 dilution (present in blocking buffer). 0.5ml of diluted antibody was added per well and incubated for 60 minutes at 37° C. The secondary antibody (goat anti-mouse lgG alkaline phosphatase conjugate) was diluted 1:500 in blocking buffer and added to the wells after washing for 60 minutes at 37° C. After washing the plate the substrate was prepared; BCIP/NBT tablets were dissolved in distilled water and added to the wells. Following incubation for 5-10 minutes the wells were washed and were imaged using the Leica Qwin image analysis software package.

[1] = test system: human placental blood vessels; assay: Placental blood vessel in fibrin clot in vitro angiogenesis assay; type: cell-based; conditions: 100 μg/ml; for new vessel formation compared to media alone: up to day 22
Experimental: Compounds were tested at a final concentration of 100 μg/ml. The degree of new vessel formation was quantified blind twice a week using a visual analog scale in which 0=no growth, 1=minimal new vessel formation, 2=significant new vessel formation, and 3=dense new vessel formation. An angiogenesis score was derived from each count by dividing the total score (i.e. the sum of all the wells) by the maximum possible score and then expressing the result as a percentage. This graph is representative of 3 experiments with a total of 20 wells/plate/experiment for each compound tested.
Blood vessels (approximately 1-2 mm diameter) were excised from the apical surface of human placentas within 6 h of an elective Caesarean birth. Use of the placentas for these studies were approved by the Ethics Committee of Hammersmith Hospitals Trust, London. The blood vessels were placed in Hank's balanced salt solution and cut into 1-2 mm fragments using fine dissecting forceps and iridectomy scissors. Residual clots were removed and the blood vessels then soaked in Hank's balanced salt solution.
The effect of each compound on new blood vessel formulation was determined by culturing the blood vessels within a fibrin clot in 24-well tissue culture plates. Thirty μl of bovine thrombin (50 NIH U/ml in 0.15 M sodium chloride) was added to each well followed by 1 ml/well of 3 mg/ml bovine fibrinogen in Medium 199. The thrombin and fibrinogen were rapidly mixed and a blood vessel fragment placed in the centre of the well. Fibrin gel formation occurred rapidly and left the vessel suspended within the gel. One ml/well of Medium 199 supplemented with 20% foetal calf serum, 250 IU/ml penicillin and 250 U/ml streptomycin was then added to each well. ε-arnino-n-caproic acid was also added (300 μg/ml) for the first 4 days and twice weekly thereafter (50 μg/ml) in order to prevent dissolution of the fibrin clot. The vessels were cultured at 37° C. in a humidified incubator for 25 days with the media being changed twice weekly.
The degree of new vessel formation was quantified blind twice a week by three different observers using a visual analogue scale in which 0=no growth, 1=very little new vessel formation, 2=significant new vessel formation and 3=dense new vessel formation. An angiogenesis score was derived from the counts undertaken for each well by dividing the total score by the maximum score possible and then expressing the result as a percentage. On each of 3 separate occasions, each compound was tested in 20 replicate wells. […] Some of the fibrin clots were fixed overnight in 10% formalin, paraffin embedded, sectioned for histology and then stained for the endothelial cell markers Factor VIII and CD31. Results are expressed as the mean±sem. A students t-test was used to determine the level of significance.

[2] = test system: human umbilical vein endothelial cells; assay: Endothelial microtubule formation assay on Matrigel; type: cell-based; conditions: HUVEC on Matrigel, scored at 18 h
Experimental: FIG. 6: The photomicrographs show endothelial microtubule formation in the presence of sulphated dextrins (×40 magnification). A visual analogue scale was used to determine the extent of tube formation and scored on a scale from 0 (all cells remain single) to 4 (all cells involved in tubular structures) as previously described (ref: 1,14). Space bar=100 microns.
The endothelial microtuble formation assay was performed by isolating human umbilical vein endothelial cells from umbilical cords within 6 h of delivery by caesarean section. The umbilical vein was cannulated and 0.1% collagenase in phosphate buffered saline was introduced and incubated for 20 minutes. The endothelial cells liberated by the collagenase were obtained by washing the umbilical vein with Medium 199. The cells were washed three times with Medium 199 and then cultured in tissue culture flasks coated with fibronectin. […]
Aliquots of Matrigel were dispensed into 35 mm diameter tissue culture dishes on ice and then incubated at 37° C. for 10 min to allow the gel to set. […] At various time points from 8-24 hours, the plates were examined and scored using a published scheme from 0-4, where 0=all adherent cells remain single, and 4=all adherent cells involved in tubular structures. New vessel formation was quantified blind by three different observers at 18 h. […]

KSY-1 cell line = assay: Proliferation with bFGF or VEGF, [3H]-thymidine incorporation; type: cell-based, human
HUVECs = assay: Proliferation induced by bFGF or VEGF, [3H]-thymidine incorporation; type: cell-based, human; conditions: 100 μg/ml, bFGF 10 ng/ml or VEGF 20 ng/ml
Experimental: FIG. 3: Graph to show the effect of sulphated dextrins on the proliferation of HUVECs induced by bFGF or VEGF was measured using a [^3H]-thymidine incorporation assay.
For these experiments, HUVECs (5×10^3/well) were suspended in Medium M199 containing 10% FCS, 2 mM L-glutamine, 100 Iu/ml penicillin and 0.1 mg/ml streptomycin. After 24 h, the media was replaced with fresh media containing either D2S (100 μg/ml) or D6S (100 μg/ml) for 1 h following which either bFGF (10 ng/ml) or VEGF (20 ng/ml, Preprotech, Rocky Hill, N.J.) were added. […] [^3H]-thymidine (1 mCi/ml, Amersham Pharrnacia, Bucks, UK) was added 48 h later and the cells cultured for a further 16 h. Cells were harvested using an automated Betaplate 96 well harvester (Wallac Oy, Turku, Finland) and the radioactivity counted using a Betaplate liquid scintillation counter.

[3] = test system: peripheral blood mononuclear cells and monocyte-derived-macrophages; assay: D2S cell surface binding to peripheral blood mononuclear cells and monocyte-derived-macrophages; conditions: PBMC and monocyte-derived-macrophages, read-out: dissociation constant
Experimental: Our previous studies of peripheral blood mononuclear cells and monocyte-derived-macrophages have shown that D2S binds to the cell surface in a specific and saturable manner with a dissociation constant of 82±14 nM.

Kaposi's sarcoma = assay: Phase I clinical trial in patients with late stage AIDS: Kaposi's sarcoma; type: in vivo, human
HIV-1 = conditions: intra-peritoneal route, patients with late stage AIDS
HPB-ALL cells = assay: [3H]-dextrin 2-sulphate binding to HPB-ALL cells
[4] = Accumulation in cells of the peritoneal cavity and peripheral blood of treated patients; type: in vivo, human
HeLa cells = assay: [3H]-dextrin 2-sulphate binding to HeLa cells; conditions: n=9

Experimental for HUVEC's: (§1) Human umbilical vein endothelial cells (HUVEC's) were also harvested from umbilical cords by digestion with collagenase type II and cultured in 1% gelatin coated tissue culture flasks in Medium 199 supplemented with 20% fetal bovine serum, 100 IU/ml penicillin, 0.1 mg/ml streptomycin, 2mM L-glutamine, 10 U/ml heparin and 20 μg/ml endothelial cell growth supplement. The KS Y-1 cell line which was established from the pleural effusion of a patient with AIDS-associated Kaposi's sarcoma was also studied. It was CD34 and CD31 positive confirming it as being of endothelial origin.
(§2) The effect of sulphated dextrins on the growth of HUVEC's and KSY-1 cells which were being cultured in the presence of basic fibroblast growth factor (bFGF) or vascular endothelial growth factor (VEGF) was also determined.
Experimental for KSY-1 cells: as §1, §2

## Cc1ccc(C(=O)Nc2ccc(S(=O)(=O)O)c3cc(S(=O)(=O)O)cc(S(=O)(=O)O)c23)cc1NC(=O)c1cccc(NC(=O)Nc2cccc(C(=O)Nc3cc(C(=O)Nc4ccc(S(=O)(=O)O)c5cc(S(=O)(=O)O)cc(S(=O)(=O)O)c45)ccc3C)c2)c1 [Suramin, reference compound]
HUVEC cell line; negative control reagent
  branch points, inhibition: 98%
  tubule number, inhibitory effect compared to vehicle control: 51%

## VEGF
HUVEC cell line; positive control reagent
  branch points, elevation: 131%
  tubule number, elevation compared to vehicle control: 174%

## dextrin
HUVEC's
  cell viability (Trypan blue exclusion): > 95%
HUVEC's; HUVEC's, 7 day period, twice weekly cell counts
  rate of cell division: Neither dextrin nor sulphated dextrins affected
[1]
  new vessel formation compared to media alone: no difference
KSY-1 cells
  cell viability (Trypan blue exclusion): > 95%
KSY-1 cells; KSY-1 cells, 7 day period, twice weekly cell counts
  rate of cell division: Neither dextrin nor sulphated dextrins affected

## dextrin 2,6-sulphate
[2]
  anti-angiogenic activity (microtubule formation): more than that seen with D2S but less than that seen with D6S

## dextrin 2-sulphate
KSY-1 cell line
  effect on proliferation with bFGF or VEGF: do not interfere
HUVECs
  effect on proliferation induced by bFGF or VEGF: do not interfere
HUVECs; listed as D2S
  effect on proliferation induced by bFGF or VEGF: no significant effect
[3]
  Kd: 82 ± 14 nM
Kaposi's sarcoma
  Kaposi's sarcoma clinical response: clinical regression of Kaposi's sarcoma in three patients
HIV-1
  viral load of HIV-1: significant and sustained fall
HPB-ALL cells
  Bmax: 4.8±0.3 pmol/10^6 cells
HPB-ALL cells; specific and saturable binding, read-out: dissociation constant (Kd)
  Kd: 82 ± 14 nM
[1]; day 22
  new blood vessel formation score (scale 0-3): 1
[1]
  new vessel formation compared to media alone: reduced the rate of new vessel formation; also recorded: significant reduction in the number of new vessels
[4]
  accumulation in cells of treated patients: accumulated in the peritoneal macrophages and mesothelial cells
HeLa cells
  Bmax: 4.1±0.2 pmol/10^6 cells
  Kd: 107 ± 12 nM

## dextrin 6-sulphate
KSY-1 cell line
  effect on proliferation with bFGF or VEGF: do not interfere
HUVECs
  effect on proliferation induced by bFGF or VEGF: do not interfere
HUVECs; listed as D6S
  effect on proliferation induced by bFGF or VEGF: no significant effect
[1]
  new vessel formation compared to media alone: reduced the rate of new vessel formation
[1]; listed as Dextrin 6-sulphate
  new vessel formation compared to media alone: significant decrease in new vessel formation

Source: patent US6689764B1, “Treatment of angiogenesis dependent conditions with dextrin sulphate” (priority 1999, dated 2004)
